Experimental data from patent US9187480B2, “Peripherally restricted diphenyl purine derivatives” (RESEARCH TRIANGLE INSTITUTE, priority 2012, dated 2015).

Key:
CB1 [1] = biological target: T1, CB1 (Homo sapiens (Human), UniProt P21554); experiment: CB1 activated Gαq16-coupled intracellular calcium mobilization assay in CHO-K1 cells; type: cell-based; details: apparent affinity (Ke)
CB2 = CB2 (Homo sapiens (Human), UniProt P34972); experiment: Displacement of [3H]CP55940 in membranes of CHO-K1 cells over-expressing CB2; type: binding; details: radioligand [3H]CP55940, CHO-K1 membranes; read-out: Ki (nM) v. [3H]CP55940 at CB2
CB1 [2] = biological target: T1, CB1; experiment: Displacement of [3H]CP55940 in membranes of CHO-K1 cells over-expressing CB1;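 on all read-outs here: reported values are averages of 3-6 independent measurements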; details: for Binding Selectivity using CP55940 Displacement: CB1 versus CB2; for Ki: read-out: Ki (nM) v. [3H]CP55940 at CB1, radioligand [3H]CP55940, CHO-K1 membranes
Procedure: Further characterization of select compounds was performed using radioligand displacement of [3H]1 and equilibrium dissociation constant (Ki) values were determined. Selectivity of these compounds at CB1 versus CB2 was also determined by obtaining Ki values at either receptor using displacement of [3H]CP55940 in membranes of CHO-K1 cells over-expressing either receptor. Data reported are average values from 3-6 measurements.
Selectivity against the CB2 receptor was determined by comparing the compound displacement of radiolabeled CP55940, which is a cannabinoid known to act as a full agonist at both CB1 and CB2 receptors.

[3] = Brain penetration / plasma and brain levels after oral dosing in SD rats; type: in vivo, Sprague-Dawley (SD) rats; details: oral 10 mg/kg; for Kp at 1 h / Kp at 2 h / Kp at 4 h / Kp at 24 h / Kp: Sprague-Dawley, rat, brain and plasma; for Kp: range over sampling times, read-out: brain to plasma ratios; for Brain conc.: unperfused brain
Procedure: However, unlike otenabant, this sulfonamide is a peripherally selective compound. […] Select compounds were chosen for study to determine penetration into the CNS. Selected compounds were dosed orally at 10 mg/kg in SD rats. Brain and plasma samples were collected at 1, 2, 4, and 24 hours post dose and samples were analyzed by MS (Table 2, below). Since unperfused brains were used and the blood volume in unperfused brains is approximately 4%, a brain to plasma level of ≦0.04 represents no discernible penetration into the CNS.

T1 sequence (P21554 whole entry): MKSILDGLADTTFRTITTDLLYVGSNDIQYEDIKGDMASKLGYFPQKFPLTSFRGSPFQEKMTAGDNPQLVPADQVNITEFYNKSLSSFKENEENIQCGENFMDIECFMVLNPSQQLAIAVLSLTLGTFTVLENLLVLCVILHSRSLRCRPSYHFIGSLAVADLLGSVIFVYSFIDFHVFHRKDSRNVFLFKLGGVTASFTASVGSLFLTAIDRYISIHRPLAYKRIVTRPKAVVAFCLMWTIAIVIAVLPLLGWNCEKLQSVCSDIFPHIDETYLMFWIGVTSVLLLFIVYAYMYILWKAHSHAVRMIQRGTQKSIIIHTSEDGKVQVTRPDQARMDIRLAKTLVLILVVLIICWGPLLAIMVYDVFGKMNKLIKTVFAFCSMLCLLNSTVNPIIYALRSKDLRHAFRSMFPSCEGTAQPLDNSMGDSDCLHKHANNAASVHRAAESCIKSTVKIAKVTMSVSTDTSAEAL
Chain of CB2 (P34972 whole entry): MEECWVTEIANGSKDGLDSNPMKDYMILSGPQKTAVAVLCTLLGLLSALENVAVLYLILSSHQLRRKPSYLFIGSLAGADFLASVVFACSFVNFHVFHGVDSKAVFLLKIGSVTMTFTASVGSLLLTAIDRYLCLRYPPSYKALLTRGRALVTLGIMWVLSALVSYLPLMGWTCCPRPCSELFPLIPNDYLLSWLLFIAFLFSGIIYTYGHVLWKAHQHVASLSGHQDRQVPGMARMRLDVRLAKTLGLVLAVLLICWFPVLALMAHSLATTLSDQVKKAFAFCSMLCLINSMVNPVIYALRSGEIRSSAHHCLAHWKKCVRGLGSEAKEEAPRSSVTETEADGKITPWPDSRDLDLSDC

## NS(=O)(=O)NC1CCN(c2ncnc3c2nc(-c2ccccc2Cl)n3-c2ccc(Cl)cc2)CC1
CB1 [1]
  Ke (nM) at CB1: 2768 nM

## CC(=O)NC1CCN(c2ncnc3c2nc(-c2ccccc2Cl)n3-c2ccc(Cl)cc2)CC1
CB1 [1]
  Ke (nM) at CB1: 631 nM

## O=C(NC1CCN(c2ncnc3c2nc(-c2ccccc2Cl)n3-c2ccc(Cl)cc2)CC1)C(F)(F)F
CB1 [1]
  Ke (nM) at CB1: 3.19 nM

## CC(C)CC(=O)NC1CCN(c2ncnc3c2nc(-c2ccccc2Cl)n3-c2ccc(Cl)cc2)CC1
CB1 [1]
  Ke (nM) at CB1: 5.4 nM
CB2
  Ki: 89.5 nM
CB1 [2]
  Binding Selectivity using CP55940 Displacement: 22
  Ki: 4.01 nM

## CCCNC(=O)N1CCC(Nc2ncnc3c2nc(-c2ccccc2Cl)n3-c2ccc(Cl)cc2)CC1
CB1 [1]
  Ke (nM) at CB1: 1964 nM

## CCNC(=O)NC1(c2ccccc2)CCN(c2ncnc3c2nc(-c2ccccc2Cl)n3-c2ccc(Cl)cc2)CC1
CB1 [1]
  Ke (nM) at CB1: 443 nM
CB2
  Ki: 4640 nM
CB1 [2]
  Binding Selectivity using CP55940 Displacement: 24
  Ki: 195 nM

## CCOC(=O)NC1CCN(c2ncnc3c2nc(-c2ccccc2Cl)n3-c2ccc(Cl)cc2)CC1 [drawing 84]
[3]; 1 hour post dose
  Kp at 1 h: 0.28
  Plasma conc.: 740 ng/mL
  Brain conc.: 207 ng/mL
[3]; 2 hours post dose
  Kp at 2 h: 0.14
  Plasma conc.: 971 ng/mL
  Brain conc.: 132 ng/mL
[3]; 4 hours post dose
  Kp at 4 h: 0.16
  Plasma conc.: 1750 ng/mL
  Brain conc.: 276 ng/mL
[3]; 24 hours post dose
  Kp at 24 h: 0.46
  Plasma conc.: 72.6 ng/mL
  Brain conc.: 33.5 ng/mL
[3]
  Kp: 0.14 to 0.46

## CCCCNC(=O)N1CCC(Nc2ncnc3c2nc(-c2ccccc2Cl)n3-c2ccc(Cl)cc2)CC1
CB1 [1]
  Ke (nM) at CB1: 71 nM

## CC(=O)N1CCCC(Nc2ncnc3c2nc(-c2ccccc2Cl)n3-c2ccc(Cl)cc2)C1 (centres unmarked)
CB1 [1]
  Ke (nM) at CB1: 4449 nM

## O=C(CC1CCCCC1)NC1CCN(c2ncnc3c2nc(-c2ccccc2Cl)n3-c2ccc(Cl)cc2)CC1
CB1 [1]
  Ke (nM) at CB1: 2.1 nM
CB2
  Ki: 2360 nM
CB1 [2]
  Ki: 1.93 nM

## O=C(NC1CCCCC1)NC1(c2ccccc2)CCN(c2ncnc3c2nc(-c2ccccc2Cl)n3-c2ccc(Cl)cc2)CC1
CB1 [1]
  Ke (nM) at CB1: 199 nM

## CCNC(=O)N1CCCC(Nc2ncnc3c2nc(-c2ccccc2Cl)n3-c2ccc(Cl)cc2)C1 (centres unmarked)
CB1 [1]
  Ke (nM) at CB1: 1153 nM

## CC(C)NC(=O)N1CCC(Nc2ncnc3c2nc(-c2ccccc2Cl)n3-c2ccc(Cl)cc2)CC1
CB1 [1]
  Ke (nM) at CB1: 495 nM

## CC(C)CCC(=O)NC1CCN(c2ncnc3c2nc(-c2ccccc2Cl)n3-c2ccc(Cl)cc2)CC1
CB1 [1]
  Ke (nM) at CB1: 7.4 nM
CB2
  Ki: 215 nM
CB1 [2]
  Binding Selectivity using CP55940 Displacement: 81
  Ki: 2.67 nM

## Clc1ccc(-n2c(-c3ccccc3Cl)nc3c(NC4CCNCC4)ncnc32)cc1
CB1 [1]
  Ke (nM) at CB1: Not active

## O=C(NC1CCN(c2ncnc3c2nc(-c2ccccc2Cl)n3-c2ccc(Cl)cc2)CC1)C1CCCCC1
CB1 [1]
  Ke (nM) at CB1: 3.3 nM
CB2
  Ki: 835 nM
CB1 [2]
  Binding Selectivity using CP55940 Displacement: 249
  Ki: 3.35 nM

## CC(=O)N1CCC(Nc2ncnc3c2nc(-c2ccccc2Cl)n3-c2ccc(Cl)cc2)CC1
CB1 [1]
  Ke (nM) at CB1: 19595 nM

## CS(=O)(=O)N1CCC(Nc2ncnc3c2nc(-c2ccccc2Cl)n3-c2ccc(Cl)cc2)CC1
CB1 [1]
  Ke (nM) at CB1: 1645 nM

## CCCCNC(=O)NC1(c2ccccc2)CCN(c2ncnc3c2nc(-c2ccccc2Cl)n3-c2ccc(Cl)cc2)CC1
CB1 [1]
  Ke (nM) at CB1: 62 nM

## CCOC(=O)NC1CCN(c2ncnc3c2nc(-c2ccccc2Cl)n3-c2ccc(Cl)cc2)CC1 [drawing 62]
CB1 [1]
  Ke (nM) at CB1: 2.3 nM
CB2
  Ki: 426 nM
CB1 [2]
  Binding Selectivity using CP55940 Displacement: 119
  Ki: 3.57 nM

## CC(C)(C)OC(=O)N1CCC(Nc2ncnc3c2nc(-c2ccccc2Cl)n3-c2ccc(Cl)cc2)CC1
CB1 [1]
  Ke (nM) at CB1: 92 nM
CB2
  Ki: 13600 nM
CB1 [2]
  Binding Selectivity using CP55940 Displacement: 568.8
  Ki: 23.9 nM

## CC(C)NC(=O)NC1(c2ccccc2)CCN(c2ncnc3c2nc(-c2ccccc2Cl)n3-c2ccc(Cl)cc2)CC1
CB1 [1]
  Ke (nM) at CB1: 46 nM

## O=C(CCN1CCCCC1)NC1CCN(c2ncnc3c2nc(-c2ccccc2Cl)n3-c2ccc(Cl)cc2)CC1
CB1 [1]
  Ke (nM) at CB1: 789 nM

## CCCCNC(=O)NC1CCN(c2ncnc3c2nc(-c2ccccc2Cl)n3-c2ccc(Cl)cc2)CC1
CB1 [1]
  Ke (nM) at CB1: 49 nM

## CS(=O)(=O)NC1CCN(c2ncnc3c2nc(-c2ccccc2Cl)n3-c2ccc(Cl)cc2)CC1
CB1 [1]
  Ke (nM) at CB1: 71 nM

## CCCNC(=O)NC1CCN(c2ncnc3c2nc(-c2ccccc2Cl)n3-c2ccc(Cl)cc2)CC1
CB1 [1]
  Ke (nM) at CB1: 132 nM

## O=S(=O)(NC1CCN(c2ncnc3c2nc(-c2ccccc2Cl)n3-c2ccc(Cl)cc2)CC1)c1ccccc1
CB1 [1]
  Ke (nM) at CB1: 0.26 nM

## NC1CCN(c2ncnc3c2nc(-c2ccccc2Cl)n3-c2ccc(Cl)cc2)CC1
CB1 [1]
  Ke (nM) at CB1: 316 nM

## O=C(NC1CCN(c2ncnc3c2nc(-c2ccccc2Cl)n3-c2ccc(Cl)cc2)CC1)c1ccccc1
CB2
  Ki: 10600 nM

## CCCCC(=O)NC1CCN(c2ncnc3c2nc(-c2ccccc2Cl)n3-c2ccc(Cl)cc2)CC1 [drawing 78]
CB1 [1]
  Ke (nM) at CB1: 4.9 nM
CB2
  Ki: 1050 nM
CB1 [2]
  Binding Selectivity using CP55940 Displacement: 54
  Ki: 19.5 nM

## CCOC(=O)CNC(=O)NC1(c2ccccc2)CCN(c2ncnc3c2nc(-c2ccccc2Cl)n3-c2ccc(Cl)cc2)CC1
CB1 [1]
  Ke (nM) at CB1: 171 nM

## O=S(=O)(NC1CCN(c2ncnc3c2nc(-c2ccccc2Cl)n3-c2ccc(Cl)cc2)CC1)C(F)(F)F
CB1 [1]
  Ke (nM) at CB1: 1.05 nM
CB2
  Ki: 4500 nM
CB1 [2]
  Binding Selectivity using CP55940 Displacement: 738
  Ki: 6.1 nM

## CCCNC(=O)NC1(c2ccccc2)CCN(c2ncnc3c2nc(-c2ccccc2Cl)n3-c2ccc(Cl)cc2)CC1
CB1 [1]
  Ke (nM) at CB1: 100 nM

## COC(=O)NC1CCN(c2ncnc3c2nc(-c2ccccc2Cl)n3-c2ccc(Cl)cc2)CC1
CB1 [1]
  Ke (nM) at CB1: 17 nM

## O=C(NC1CCN(c2ncnc3c2nc(-c2ccccc2Cl)n3-c2ccc(Cl)cc2)CC1)C1CCCC1
CB1 [1]
  Ke (nM) at CB1: 0.89 nM
CB2
  Ki: 60.2 nM
CB1 [2]
  Binding Selectivity using CP55940 Displacement: 39
  Ki: 1.54 nM

## CCNC(=O)NC1CCN(c2ncnc3c2nc(-c2ccccc2Cl)n3-c2ccc(Cl)cc2)CC1
CB1 [1]
  Ke (nM) at CB1: 149 nM

## CC(C)(C)OC(=O)NC1CCN(c2ncnc3c2nc(-c2ccccc2Cl)n3-c2ccc(Cl)cc2)CC1
CB1 [1]
  Ke (nM) at CB1: 11 nM

## CN(C)CC(=O)NC1CCN(c2ncnc3c2nc(-c2ccccc2Cl)n3-c2ccc(Cl)cc2)CC1
CB1 [1]
  Ke (nM) at CB1: 140 nM

## CC(C)NC(=O)NC1CCN(c2ncnc3c2nc(-c2ccccc2Cl)n3-c2ccc(Cl)cc2)CC1
CB1 [1]
  Ke (nM) at CB1: 133 nM

## CCNC(=O)N1CCC(Nc2ncnc3c2nc(-c2ccccc2Cl)n3-c2ccc(Cl)cc2)CC1
CB1 [1]
  Ke (nM) at CB1: 1148 nM

## CCCCC(=O)NC1CCN(c2ncnc3c2nc(-c2ccccc2Cl)n3-c2ccc(Cl)cc2)CC1 [drawing 85]
[3]; 1 hour post dose
  Kp at 1 h: 0.03
  Plasma conc.: 1430 ng/mL
  Brain conc.: 43.6 ng/mL
[3]; 2 hours post dose
  Kp at 2 h: 0.03
  Plasma conc.: 2780 ng/mL
  Brain conc.: 72.4 ng/mL
[3]; 4 hours post dose
  Kp at 4 h: 0.07
  Plasma conc.: 1680 ng/mL
  Brain conc.: 119 ng/mL
[3]; 24 hours post dose
  Kp at 24 h: 0.13
  Plasma conc.: 18.7 ng/mL
  Brain conc.: 2.36 ng/mL
[3]
  Kp: 0.03 to 0.13

## O=C(CC1CCCC1)NC1CCN(c2ncnc3c2nc(-c2ccccc2Cl)n3-c2ccc(Cl)cc2)CC1
CB1 [1]
  Ke (nM) at CB1: 2.9 nM
CB2
  Ki: 569 nM
CB1 [2]
  Binding Selectivity using CP55940 Displacement: 282
  Ki: 2.02 nM
